Test results reported in patent US11584733B2, “Selective histone deacetylase inhibitors for the treatment of human disease” (Shuttle Pharmaceuticals, Inc., priority 2017, dated 2023).

How the values were obtained:
[1] = system: MCF-7 breast cancer cells; assay: Cell Proliferation and Cytotoxicity Assay (CCK-8); format: cell-based; settings: FIG. 15
Description: Cell Counting Kit-8 (CCK-8) (Dojindo) was used to determine the cytotoxicity of cells. CCK-8 assay kit uses a water-soluble WST-8 tetrazolium salt. This tetrazolium salt produces a water-soluble formazan dye upon reduction in the presence of an electron mediator (dehydrogenase). When WST-8 is reduced by dehydrogenases in living cells an orange colored product (formazan) is produced that can be detected in a 96-well plate format. The amount of the formazan dye generated by dehydrogenases is directly proportional to the number of living cells.
For this assay the following materials were required:
1. Plate reader (450 nm filter);
5. Tissue Culture Media; and
6. Actively growing cells (75-80% confluency).
The following dilutions with cell media were made prior to performance of an assay: Test compound solutions were made in a range from nano-molar to micro-molar with a final DMSO concentration not exceeding 0.1% and a total volume (e.g., 300 ul) necessary to perform duplicates of 100 μl doses.
A Cell Proliferation and Cytotoxicity Assay was performed as follows:
1. Dispense 100 μl of cell suspension (5000 cells/well) in a 96-well plate equal to the number of treatments plus controls done in duplicate;
2. Allow seeded cells to plate for 24 hours in a humidified incubator (at 37° C., 5% CO2);
3. […]
7. Measure the absorbance at 450 nm using a micro-plate reader; and […]

Human recombinant HDAC3 = Human recombinant HDAC3 (Homo sapiens, UniProt O15379); assay: HDAC isomer assay, Fluor-de-Lys, HDAC3; format: biochemical
Chain of Human recombinant HDAC3 (O15379 whole entry): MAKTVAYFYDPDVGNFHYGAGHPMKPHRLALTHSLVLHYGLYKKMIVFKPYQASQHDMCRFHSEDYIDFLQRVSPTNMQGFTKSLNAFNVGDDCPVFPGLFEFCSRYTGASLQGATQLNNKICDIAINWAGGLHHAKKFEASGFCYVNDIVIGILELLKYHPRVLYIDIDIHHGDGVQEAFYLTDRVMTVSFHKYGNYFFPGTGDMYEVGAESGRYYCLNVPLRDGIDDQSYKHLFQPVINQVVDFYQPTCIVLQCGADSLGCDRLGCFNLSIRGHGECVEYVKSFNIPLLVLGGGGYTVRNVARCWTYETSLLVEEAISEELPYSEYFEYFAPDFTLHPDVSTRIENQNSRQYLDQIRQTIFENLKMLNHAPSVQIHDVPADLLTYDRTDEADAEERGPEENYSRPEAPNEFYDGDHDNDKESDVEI
Chain of Human recombinant HDAC3 (Q9Y618 395-489 partner limits assumed): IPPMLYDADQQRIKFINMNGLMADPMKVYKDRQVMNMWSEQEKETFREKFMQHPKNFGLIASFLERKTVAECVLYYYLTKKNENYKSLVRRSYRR
Description: The HDAC isomer (HDAC1, 3, and 6) assays were performed as follows:
Materials: Human recombinant HDAC isomer (HDAC1, HDAC3, and HDAC6); Fluor-de-Lys HDAC substrates; 360 nm excitation 460 nm emission Plate Reader; Disposable pipettes; Pipet-aid; Pipette tips; Micro-pipetter; DMSO; Sterile micro-tubes and conical tubes; and Micro-centrifuge.
Test compounds and control preparation: All test compounds' stock solutions were made in 100% DMSO. Test compound dilutions were made in HDAC Assay buffer with a final concentration of DMSO less than or equal to 1%. Vehicle control was HDAC Assay buffer with 1% DMSO.
The reagents for the assay were prepared as follows:
1. All kit components were defrosted and these, and all dilutions described below, were kept on ice until use. All undiluted kit components are stable for several hours on ice.
2. A sufficient amount of HDAC source diluted in Assay Buffer (BML-KI143) was prepared to provide for the assays that were performed (# of wells×15 μl). A 30-fold dilution of the HeLa Extract means that 15p L contains 0.5 μl of the undiluted Extract, an appropriate amount to use per well.
3. Dilution(s) of SAHA and/or Test Inhibitors were prepared in Assay Buffer (BML-KI143). […]
6. Samples were read in a microtiter-plate reading fluorimeter capable of excitation at a wavelength in the range 350-380 nm and detection of emitted light in the range 440-460 nm.

Structure (SMILES) | EC50 ([1]; Homo sapiens, MCF7, 48 hours incubation, read-out: EC50 against MCF-7 breast cancer cells) [µM] | MCF-7 cells killed ([1]; at about 10 μM) [%] | EC50 (Human recombinant HDAC3; Example 4, FIG. 10) [µM] | IC50 (Human recombinant HDAC3; Example 6, FIG. 18, 2 mg/mL formulation in 5% DMSO/40% PEG 400/55% PBS, read-out: IC50 against HDAC3 protein) [µM]
O=C(CCCCCCC(=O)NC1CCC(=O)NC1=O)NO (stereo not shown) [SP-2-59, N^1-(2,6-dioxopiperidin-3-yl)-N^8-hydroxyoctanediamide] | 5.03 | 78 | – | –
O=C(CCCCCCC(=O)Nc1cccc2c1CN(C1CCC(=O)NC1=O)C2=O)NO (stereo not shown) [SP-2-93, N^1-(2-(2,6-dioxopiperidin-3-yl)-1-oxoisoindolin-4-yl)-N^8-hydroxyoctanediamide] | – | – | 3.07 | 3.07
